From ChEMBL document CHEMBL1201862, “PubChem BioAssay data set” (2004)
Activity calls are given as the source filed them.

Experiments:
[1] = system: Vero; experiment: host cell cytotoxicity of antiviral hits, dose response, cytotoxicity control for West Nile virus antiviral project, secondary assay (AID 1650); assay type: functional; conditions: Chlorocebus sabaeus
[2] = system: Vero; experiment: cells; assay type: functional, cell-based; conditions: Chlorocebus sabaeus
[3] = system: BJ; experiment: cytotoxicity toward BJ-TERT fibroblasts, dose response, cell-based, RAS-independent, luminescence (AID 1933); assay type: functional; conditions: Homo sapiens
[4] = cytotoxicity toward DRD oncogenic fibroblasts, dose response, cell-based, non-viral oncogenic, luminescence (AID 1934); assay type: functional; conditions: Homo sapiens
[5] = system: BJ; experiment: cytotoxicity toward BJ-TERT-LT-ST fibroblasts, dose response, cell-based, RAS-independent, luminescence (AID 1935); assay type: functional; conditions: Homo sapiens;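 note: BJ fibroblasts immortalized with TERT plus LT and ST oncogenes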
[6] = system: BJ; experiment: cells; assay type: functional, cell-based; conditions: Homo sapiens
[7] = system: Vero; experiment: cells; assay type: functional; conditions: Chlorocebus sabaeus
[8] = cells; assay type: functional, cell-based
[9] = cells; assay type: functional, cell-based; remark: listed apart in the source
[10] = inhibitors of intracellular T. cruzi replication, confirmation, NIH3T3 host cells, beta-gal luminescence (AID 2044); assay type: functional, cell-based;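 note: intracellular parasites grown in NIH/3T3 mouse fibroblasts as host cells; luminescent beta-galactosidase reporter signal from transgenic T. cruzi replicating inside host cells; inhibitors lower the luminescence signal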
[11] = system: INS1; experiment: beta cell apoptosis inhibitors, cytokine rescue, dose response, luminescence, retest (AID 449756); assay type: functional, cell-based; conditions: Rattus norvegicus;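 note: cell death triggered by IL-1 beta plus TNF-alpha plus IFN-gamma mixture; protective hits raise ATP signal compared with cytokine alone wells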
[12] = NIH-3T3 fibroblast cytotoxicity, dose response, cytotoxicity control, cell-based, fluorescence, Alamar Blue, secondary assay (AID 2327); assay type: functional;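 note: NIH-3T3 mouse fibroblasts cultured with fluconazole at 8 µg/mL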
[13] = cytotoxicity toward NIH3T3 fibroblasts, dose response, counter-screen, cell-based, ATP luminescence, mouse fibroblasts (AID 2010); assay type: functional;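 note: cells exposed to compound for about 90 hours before reading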
[14] = target: Albumin (Bos taurus, UniProt P02769); experiment: Counterscreen for inhibitors of T-cell receptor (TCR)-CD3 interaction: Fluorescence-based biochemical high throughput dose response assay to identify inhibitors of T-cell receptor (TCR)-CD3 interaction using a TAMRA-labeled BSA probe.; assay type: functional
[15] = system: H9c2; experiment: cells; assay type: functional, cell-based; conditions: Rattus norvegicus, H9c2, Myocardium;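 note: confirmatory concentration-response retest of ultra-high-throughput screening hits for modulation of myocardial damage; cell death induced by hydrogen peroxide oxidative stress; compound pretreatment for 60 min then peroxide exposure for 2 h; potency is for protecting the cells against peroxide damage rather than for killing them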
[16] = Luminescence Cell-Based Dose Retest to Confirm Inhibitors of Cancer Stem Cells. [Related pubchem assays (depositor defined):AID2717, AID2721]; assay type: functional; conditions: Homo sapiens
[17] = microbe, parasite or virus in culture; assay type: functional; conditions: Mycobacterium tuberculosis
[18] = target: T1, Ubiquitin-conjugating enzyme E2 N (Homo sapiens, UniProt P61088); assay type: functional;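 note: Dose-response confirmation in a TR-FRET assay detecting UBC13-driven polyubiquitin chain formation, inhibition measured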
T1 sequence (P61088 whole entry): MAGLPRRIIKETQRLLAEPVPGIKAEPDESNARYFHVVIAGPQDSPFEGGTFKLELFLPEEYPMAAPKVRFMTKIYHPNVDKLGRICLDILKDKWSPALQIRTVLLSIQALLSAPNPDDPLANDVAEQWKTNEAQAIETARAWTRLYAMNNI

[19] = target: Heat shock protein HSP 90-alpha (Homo sapiens, UniProt P07900); assay type: functional, organism-based
[20] = C. albicans growth with fluconazole, confirmation, fluorescence, retest (AID 2467); assay type: functional, cell-based
[21] = system: HeLa; experiment: HeLa cell cytotoxicity, dose response, cytotoxicity control for MITF activator project, CellTiter-Glo luminescence, cherry-pick samples (AID 540259); assay type: functional, cell-based; conditions: Homo sapiens
[22] = system: Streptococcus; experiment: Group A Streptococcus viability loss, dose response, counter-screen for streptokinase expression inhibitor project, luminescence, BacTiterGlo (AID 1915); assay type: functional, organism-based;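 note: potency for reduction of bacterial viability or growth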
[23] = system: Streptococcus sp. 'group A'; experiment: growth inhibition of control SK(-) GAS strain, dose response, counter-screen for streptokinase expression inhibitor project, luminescence, kanamycin, BacTiterGlo, confirmation (AID 1900); assay type: functional, organism-based
[24] = target: T2, Streptokinase A (Streptococcus pyogenes serotype M1, UniProt P10520); experiment: S. pyogenes streptokinase expression inhibitors, potency, dose response, plasminogen activation absorbance, OD405 (AID 1914); assay type: functional, Streptococcus pyogenes M1 GAS;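 note: secreted streptokinase activity via plasminogen activation per viability signal from cell pellet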
T2 sequence (P10520 whole entry): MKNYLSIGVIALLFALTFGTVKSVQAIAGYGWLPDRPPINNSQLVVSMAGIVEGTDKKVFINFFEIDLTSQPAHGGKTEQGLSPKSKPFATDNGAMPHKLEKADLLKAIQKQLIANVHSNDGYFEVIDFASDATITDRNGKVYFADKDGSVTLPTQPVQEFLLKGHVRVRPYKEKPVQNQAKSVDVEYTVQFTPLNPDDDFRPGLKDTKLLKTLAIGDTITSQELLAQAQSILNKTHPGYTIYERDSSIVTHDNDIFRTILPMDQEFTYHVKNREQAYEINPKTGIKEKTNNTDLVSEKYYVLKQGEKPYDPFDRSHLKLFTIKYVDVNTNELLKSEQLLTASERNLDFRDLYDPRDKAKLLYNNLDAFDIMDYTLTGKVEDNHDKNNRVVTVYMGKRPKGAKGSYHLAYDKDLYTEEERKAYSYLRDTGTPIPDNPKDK

[25] = target: Induced myeloid leukemia cell differentiation protein Mcl-1 (Homo sapiens, UniProt Q07820); assay type: functional
[26] = target: Genome polyprotein (dengue virus type 2, UniProt P29990); experiment: Dengue-2 NS5 methyltransferase inhibitors, primary screen, biochemical, confirmation dose response (AID 588689); assay type: functional
[27] = system: Vero; experiment: Vero cell cytotoxicity, cytotoxicity control for flavivirus capping enzyme inhibitors (AID 588742); assay type: functional; conditions: Chlorocebus sabaeus
[28] = target: Nonstructural protein 1 (Influenza A virus, UniProt Q194T2); assay type: functional, Influenza A virus (A/California/07/2009(H1N1))
[29] = target: T3, Tyrosine-protein phosphatase non-receptor type 11 (Homo sapiens, UniProt Q06124); experiment: SHP2 phosphatase inhibition, dose response, selectivity assay for STEP inhibitor project, biochemical (AID 602367); assay type: functional; conditions: read-out: IC50_Mean
T3 sequence (Q06124 whole entry): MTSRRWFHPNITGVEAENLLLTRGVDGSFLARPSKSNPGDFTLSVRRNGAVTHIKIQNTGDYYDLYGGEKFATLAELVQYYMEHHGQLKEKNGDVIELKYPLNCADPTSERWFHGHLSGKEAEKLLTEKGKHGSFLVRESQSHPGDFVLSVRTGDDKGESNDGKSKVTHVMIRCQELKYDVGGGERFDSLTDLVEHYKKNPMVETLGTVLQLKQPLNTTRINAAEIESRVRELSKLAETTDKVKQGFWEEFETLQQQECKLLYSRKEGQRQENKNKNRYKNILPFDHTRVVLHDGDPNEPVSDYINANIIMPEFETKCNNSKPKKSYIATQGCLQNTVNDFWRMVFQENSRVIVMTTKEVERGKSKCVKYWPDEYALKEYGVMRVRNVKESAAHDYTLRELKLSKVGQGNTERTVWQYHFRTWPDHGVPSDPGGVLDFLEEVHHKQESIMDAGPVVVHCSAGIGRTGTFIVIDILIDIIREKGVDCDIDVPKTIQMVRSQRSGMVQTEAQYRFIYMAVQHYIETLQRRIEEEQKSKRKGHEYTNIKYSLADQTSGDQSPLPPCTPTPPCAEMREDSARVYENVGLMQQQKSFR

[30] = target: Dual specificity protein phosphatase 3 (Homo sapiens, UniProt P51452); experiment: VHR phosphatase inhibition, dose response, selectivity assay for STEP inhibitor project, biochemical (AID 602374); assay type: functional; conditions: read-out: IC50_Mean
[31] = target: T4, Tyrosine-protein phosphatase non-receptor type 5 (Homo sapiens, UniProt P54829); experiment: STEP phosphatase inhibitors, confirmation, biochemical, fluorescence intensity, uHTS hits (AID 602372); assay type: functional; conditions: read-out: IC50_Mean
T4 sequence (P54829 whole entry): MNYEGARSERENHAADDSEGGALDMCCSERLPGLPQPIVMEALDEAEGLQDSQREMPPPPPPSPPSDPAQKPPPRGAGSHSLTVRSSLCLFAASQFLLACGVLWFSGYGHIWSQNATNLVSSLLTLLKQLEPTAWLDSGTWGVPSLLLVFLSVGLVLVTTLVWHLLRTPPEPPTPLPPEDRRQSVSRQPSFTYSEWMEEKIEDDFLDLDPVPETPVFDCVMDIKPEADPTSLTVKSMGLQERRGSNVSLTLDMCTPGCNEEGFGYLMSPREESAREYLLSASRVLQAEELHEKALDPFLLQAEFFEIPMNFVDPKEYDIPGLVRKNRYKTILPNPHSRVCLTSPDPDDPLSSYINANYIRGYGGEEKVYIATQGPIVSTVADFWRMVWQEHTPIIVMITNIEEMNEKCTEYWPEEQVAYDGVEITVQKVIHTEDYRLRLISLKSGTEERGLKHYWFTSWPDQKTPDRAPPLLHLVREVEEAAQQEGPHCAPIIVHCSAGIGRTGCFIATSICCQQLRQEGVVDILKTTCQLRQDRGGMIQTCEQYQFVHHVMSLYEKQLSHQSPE

[32] = target: T5, Carboxy-terminal domain RNA polymerase II polypeptide A small phosphatase 1 (Homo sapiens, UniProt Q9GZU7); experiment: inhibitors of CTDSP1, concentration-response testing, biochemical assay, absorbance-based, actives from ultra-high-throughput screening (AID 540297); assay type: functional
T5 sequence (Q9GZU7 whole entry): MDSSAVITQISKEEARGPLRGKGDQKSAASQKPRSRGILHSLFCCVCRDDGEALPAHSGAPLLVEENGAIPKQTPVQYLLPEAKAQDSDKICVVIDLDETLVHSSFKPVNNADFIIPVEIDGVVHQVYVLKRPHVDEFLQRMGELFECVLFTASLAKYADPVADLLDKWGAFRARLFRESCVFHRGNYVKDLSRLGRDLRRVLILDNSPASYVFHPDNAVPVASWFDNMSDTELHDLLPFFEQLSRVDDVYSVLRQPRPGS

Sequence of Albumin (P02769 whole entry): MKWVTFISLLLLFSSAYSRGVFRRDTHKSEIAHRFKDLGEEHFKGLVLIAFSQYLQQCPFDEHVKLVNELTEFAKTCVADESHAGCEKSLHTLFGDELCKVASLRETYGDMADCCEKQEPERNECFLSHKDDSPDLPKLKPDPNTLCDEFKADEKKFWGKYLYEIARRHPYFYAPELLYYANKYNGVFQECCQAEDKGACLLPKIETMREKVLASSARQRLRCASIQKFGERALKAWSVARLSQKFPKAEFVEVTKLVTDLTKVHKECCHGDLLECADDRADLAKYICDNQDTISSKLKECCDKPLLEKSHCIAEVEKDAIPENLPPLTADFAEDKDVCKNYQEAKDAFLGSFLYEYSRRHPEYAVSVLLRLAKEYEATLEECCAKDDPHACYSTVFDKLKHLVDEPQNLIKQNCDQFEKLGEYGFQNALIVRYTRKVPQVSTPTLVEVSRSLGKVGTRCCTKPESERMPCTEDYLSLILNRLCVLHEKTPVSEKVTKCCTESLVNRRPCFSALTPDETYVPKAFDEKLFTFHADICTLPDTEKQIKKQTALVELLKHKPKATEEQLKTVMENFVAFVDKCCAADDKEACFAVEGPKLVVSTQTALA
Sequence of Genome polyprotein (P29990 2492-3391 limits assumed): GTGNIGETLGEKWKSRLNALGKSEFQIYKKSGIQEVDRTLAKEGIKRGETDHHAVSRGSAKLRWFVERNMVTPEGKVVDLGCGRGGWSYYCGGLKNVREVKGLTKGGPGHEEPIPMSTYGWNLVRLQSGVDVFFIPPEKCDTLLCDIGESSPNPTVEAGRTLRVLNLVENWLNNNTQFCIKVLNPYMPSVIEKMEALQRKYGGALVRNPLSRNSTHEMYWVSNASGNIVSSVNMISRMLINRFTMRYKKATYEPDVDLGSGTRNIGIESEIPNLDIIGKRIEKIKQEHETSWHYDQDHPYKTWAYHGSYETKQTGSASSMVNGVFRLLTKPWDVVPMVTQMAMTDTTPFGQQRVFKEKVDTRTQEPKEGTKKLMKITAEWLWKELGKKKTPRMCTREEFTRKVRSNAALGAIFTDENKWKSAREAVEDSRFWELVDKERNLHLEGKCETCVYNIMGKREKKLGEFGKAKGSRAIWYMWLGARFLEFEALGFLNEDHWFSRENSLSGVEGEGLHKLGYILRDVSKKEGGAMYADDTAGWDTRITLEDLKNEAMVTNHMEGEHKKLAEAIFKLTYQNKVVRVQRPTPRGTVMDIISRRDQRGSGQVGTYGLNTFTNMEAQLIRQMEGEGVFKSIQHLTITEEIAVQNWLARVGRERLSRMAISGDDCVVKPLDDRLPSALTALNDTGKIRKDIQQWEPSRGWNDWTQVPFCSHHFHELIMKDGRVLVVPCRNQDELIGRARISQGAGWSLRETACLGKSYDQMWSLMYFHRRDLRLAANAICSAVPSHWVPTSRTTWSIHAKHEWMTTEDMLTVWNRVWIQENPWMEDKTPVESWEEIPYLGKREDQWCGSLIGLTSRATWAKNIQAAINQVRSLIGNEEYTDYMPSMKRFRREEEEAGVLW
Sequence of Nonstructural protein 1 (Q194T2 whole entry): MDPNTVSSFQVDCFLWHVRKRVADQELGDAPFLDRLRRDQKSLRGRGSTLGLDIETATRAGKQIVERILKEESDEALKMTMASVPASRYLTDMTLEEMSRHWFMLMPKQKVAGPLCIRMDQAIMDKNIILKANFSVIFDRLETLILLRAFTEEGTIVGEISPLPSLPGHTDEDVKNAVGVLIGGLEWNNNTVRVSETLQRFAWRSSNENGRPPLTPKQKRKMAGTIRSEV
Sequence of Induced myeloid leukemia cell differentiation protein Mcl-1 (Q07820 whole entry): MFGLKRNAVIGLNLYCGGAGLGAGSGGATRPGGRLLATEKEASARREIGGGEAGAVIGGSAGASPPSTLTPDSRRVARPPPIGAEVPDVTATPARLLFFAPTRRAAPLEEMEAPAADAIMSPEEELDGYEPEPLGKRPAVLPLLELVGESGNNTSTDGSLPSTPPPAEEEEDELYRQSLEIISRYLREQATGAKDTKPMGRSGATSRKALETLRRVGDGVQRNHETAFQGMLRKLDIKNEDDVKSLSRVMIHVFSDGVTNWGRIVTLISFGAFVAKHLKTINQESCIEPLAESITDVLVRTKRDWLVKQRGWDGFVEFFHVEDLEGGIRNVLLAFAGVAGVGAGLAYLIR
Sequence of Dual specificity protein phosphatase 3 (P51452 whole entry): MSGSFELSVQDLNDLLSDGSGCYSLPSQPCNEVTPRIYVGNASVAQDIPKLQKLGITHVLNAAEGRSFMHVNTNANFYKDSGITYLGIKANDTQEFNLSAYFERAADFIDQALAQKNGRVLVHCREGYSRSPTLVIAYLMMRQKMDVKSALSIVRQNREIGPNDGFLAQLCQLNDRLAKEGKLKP

CCc1cc(C(=O)N2CCc3c([nH]c4ccccc34)C2c2ccc(OC)cc2F)no1 (stereo not given)
CC50 [1]: 24.4 µM (active) | IC50 [2]: 1.74 µM (active) | EC50 [3]: 28.3 µM (active) | EC50 [4]: > 150 µM (inconclusive) | EC50 [5]: > 150 µM (not active) | EC50 [6]: > 150 µM (not active) | CC50 [7]: 20 µM (active)

Cc1c(/C=N/NC(N)=O)c2ccccn2c1C(=O)c1ccncc1
EC50 [8]: > 350 µM (not active) | EC50 [9]: > 350 µM (not active)

Cn1c(N=NO)nc2ccccc21
EC50 [8]: 11.3 µM (active) | EC50 [9]: > 350 µM (not active) | EC50 [10]: 0.778 µM (active) | AC50 [11]: 0.932 µM (active) | EC50 [12]: > 150 µM (inactive) | EC50 [13]: < 6 µM (inconclusive)

O=C(CSc1nnc(-c2ccccc2)n1Cc1ccccc1)NNC(=O)c1ccccc1O
IC50 [14]: > 94.1 µM (inactive) | IC50 [15]: 33.7 µM (inactive)

CC(C)(C)c1cc(-c2nc(N)nc(N)n2)c(O)c(C(C)(C)C)c1
AC50 [16]: 3.65 µM (active) | CC50 [17]: 38.3 µM (active) | IC50 [18]: > 20 µM (inactive) | AC50 [19]: 28.9 µM (active)

Cc1ccc(CS/C(Nc2ccccc2C)=C(\C#N)C(=O)NCc2ccco2)c(C)c1
CC50 [1]: 15.2 µM (active)

COc1ccc(N(C(=O)c2ccncc2)S(=O)(=O)c2ccccc2)cc1
AC50 [19]: 1.77 µM (active)

COc1ccc(C)cc1NC(=O)NNC(=O)c1cc2ccccc2cc1O
EC50 [20]: > 38 µM (not active) | IC50 [14]: > 94.1 µM (inactive) | EC50 [12]: 22.7 µM (inconclusive)

Cc1[nH]c2ccc(C(=O)N3CCN(c4cccc(Cl)c4)CC3)cc2c1C
AC50 [19]: 7.72 µM (active)

COc1cc(CNCc2ccccn2)ccc1OCc1ccc(Cl)c(Cl)c1
AC50 [21]: 45.5 µM (active) | CC50 [7]: > 25 µM (active)

O=C(NC(=S)NNC(=O)c1cccs1)c1ccccc1
EC50 [22]: 21.2 µM (active) | EC50 [23]: 3.79 µM (active) | EC50 [24]: > 150 µM (not active) | IC50 [14]: > 94.1 µM (inactive)

O=[N+]([O-])c1cc(Cl)cc(/C=N/NC(=S)Nc2ccc(S(=O)(=O)N3CCOCC3)cc2)c1O
IC50 [25]: 3.47 µM (active) | IC50 [26]: > 100 µM (active) | CC50 [27]: 38.3 µM (active) | EC50 [20]: > 38 µM (not active) | IC50 [28]: 3.52 µM (active) | IC50 [14]: > 94.1 µM (inactive) | EC50 [12]: > 160 µM (inactive)

CCOc1ccc(/C=N/NC(=O)c2cc3c(OC)cccc3[nH]2)cc1
IC50 [29]: 1.65 µM (active) | IC50 [30]: 1.85 µM (active) | IC50 [31]: 13.2 µM (active) | IC50 [32]: 3.08 µM (active)

COc1ccccc1OCc1cc(C(=O)N2CCN(C)C(c3ccccc3)C2)no1 (stereo not given)
AC50 [19]: 4.78 µM (active)
